Reference: ChEMBL document CHEMBL1201862, “PubChem BioAssay data set” (2004)
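Step 1: Grow cells in 96-well plates. Step 2: Expose to compound for 48 hours at 5 concentrations. Step 3: Interpolate endpoints linearly; if unreached, use highest concentration. GI50 marks 50% less growth.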 Calls of active or inactive are those of the source. No stated cut-off is given here; in the data, active = GI50 up to about 1.1 µM and inactive = higher.

Key:
Test in all cases: NCI-60 cell line screen, 48 h
NCI-H23 = system: NCI-H23
SNB-19 = system: SNB-19
HCT-116 = system: HCT-116
HL-60 = system: HL-60
SF-295 = system: SF-295
786-0 = system: 786-0
SK-MEL-28 = system: SK-MEL-28
SK-MEL-2 = system: SK-MEL-2
SF-539 = system: SF-539
ACHN = system: ACHN
Malme-3M = system: Malme-3M
MOLT-4 = system: MOLT-4
CAKI-1 = system: CAKI-1
LOX IMVI = system: LOX IMVI
SNB-75 = system: SNB-75
SW-620 = system: SW-620
HOP-92 = system: HOP-92
RPMI-8226 = system: RPMI-8226

Measured: GI50

O=C1c2ccccc2C(=O)c2[nH]cnc21
inactive: NCI-H23 30.2 µM | SNB-19 46.7 µM | HCT-116 45.4 µM | HL-60 23.6 µM | SF-295 34.3 µM | 786-0 75.9 µM | SK-MEL-28 > 100 µM | SK-MEL-2 > 100 µM | SF-539 61.2 µM | ACHN 66.7 µM | Malme-3M 20 µM | MOLT-4 49.5 µM | CAKI-1 > 100 µM

CCOC(=O)C1Cc2[nH]c3ccccc3c2C(C)C1C (centres undefined)
inactive: NCI-H23 13.5 µM | SNB-19 17.7 µM | HCT-116 16.3 µM | LOX IMVI 14.8 µM | SF-295 19.4 µM | 786-0 14.6 µM | SK-MEL-28 17.1 µM | SNB-75 8.09 µM | SK-MEL-2 20.2 µM | SW-620 17.3 µM | HOP-92 15.7 µM | SF-539 16.5 µM | ACHN 13.7 µM | Malme-3M 16.9 µM | MOLT-4 10.8 µM | CAKI-1 16.4 µM

CCOC(=O)c1ccc(/N=N/c2cc(C(=O)OCC)ccc2O)cc1
inactive: NCI-H23 > 100 µM | HCT-116 > 100 µM | HL-60 > 100 µM | LOX IMVI > 100 µM | 786-0 76 µM | RPMI-8226 > 100 µM | SK-MEL-28 > 100 µM | SW-620 > 100 µM | HOP-92 > 100 µM | SF-539 > 100 µM | ACHN 84.3 µM | MOLT-4 80.7 µM | CAKI-1 46.6 µM

CC(=O)OC1c2ccccc2CCCCCCC12OCCO2 (centres undefined)
inactive: NCI-H23 > 100 µM | SNB-19 > 100 µM | HCT-116 > 100 µM | HL-60 44.3 µM | LOX IMVI > 100 µM | SF-295 > 100 µM | 786-0 > 100 µM | RPMI-8226 48.3 µM | SK-MEL-28 > 100 µM | SNB-75 > 100 µM | SK-MEL-2 > 100 µM | SW-620 > 100 µM | SF-539 > 100 µM | ACHN > 100 µM | Malme-3M 92.5 µM | MOLT-4 60.3 µM | CAKI-1 51.9 µM

O=C(CC1(O)C(=O)Nc2c(Cl)cc(Cl)cc21)c1cccc2ccccc12 (centres undefined)
inactive: NCI-H23 16.9 µM | SNB-19 14.1 µM | HCT-116 15.2 µM | HL-60 10.5 µM | LOX IMVI 17.7 µM | SF-295 15.7 µM | 786-0 15.8 µM | RPMI-8226 19.6 µM | SK-MEL-28 18.7 µM | SNB-75 18.2 µM | SK-MEL-2 17.7 µM | SW-620 16 µM | SF-539 17.1 µM | ACHN 17.1 µM | Malme-3M 19.5 µM | MOLT-4 20 µM | CAKI-1 11.8 µM

CC(=O)OCCOCNC(=S)N/N=C/c1ccc(Br)s1
inactive: NCI-H23 > 100 µM | SNB-19 > 100 µM | HCT-116 55 µM | LOX IMVI 77.1 µM | SF-295 > 76 µM | 786-0 > 76.6 µM | RPMI-8226 5.08 µM | SK-MEL-28 > 100 µM | SNB-75 > 100 µM | SK-MEL-2 > 100 µM | SW-620 > 100 µM | HOP-92 > 100 µM | SF-539 > 100 µM | ACHN > 100 µM | Malme-3M > 100 µM | MOLT-4 > 26.1 µM

COc1ccc(CC2c3c(cc(OC)c(OC)c3OC)CCN2C)cc1OC (centres undefined)
inactive: NCI-H23 > 100 µM | SNB-19 > 100 µM | HCT-116 > 100 µM | SF-295 63.7 µM | 786-0 > 100 µM | RPMI-8226 > 100 µM | SK-MEL-28 > 100 µM | SNB-75 > 100 µM | SK-MEL-2 > 100 µM | SW-620 > 100 µM | SF-539 > 100 µM | ACHN > 100 µM | Malme-3M > 100 µM | MOLT-4 > 100 µM | CAKI-1 > 100 µM

COc1ccc(/N=C(/[N-]n2c(=O)c(C)nn(C)c2=S)N(c2ccc(OC)cc2)c2n[n+]3c(=O)c(C)nn(C)c3s2)cc1
inactive: NCI-H23 > 100 µM | SNB-19 > 100 µM | HCT-116 > 100 µM | HL-60 > 100 µM | LOX IMVI > 100 µM | SF-295 > 100 µM | 786-0 > 100 µM | RPMI-8226 > 100 µM | SK-MEL-28 > 100 µM | SNB-75 > 100 µM | SW-620 > 100 µM | HOP-92 > 100 µM | SF-539 > 100 µM | ACHN > 100 µM | MOLT-4 > 100 µM

CS(=O)(=O)N(CCC#N)c1ccc(/C=N/NC(=O)CC(=O)Nc2cccc(Cl)c2)cc1
inactive: NCI-H23 > 100 µM | SNB-19 > 100 µM | HCT-116 > 100 µM | LOX IMVI > 100 µM | SF-295 > 100 µM | 786-0 > 100 µM | RPMI-8226 > 100 µM | SK-MEL-28 > 100 µM | SNB-75 > 100 µM | SK-MEL-2 > 100 µM | SW-620 > 100 µM | SF-539 > 100 µM | ACHN > 100 µM | Malme-3M > 100 µM | MOLT-4 > 100 µM | CAKI-1 > 100 µM

CC1CCc2c(sc3ncnc(N/N=C/c4ccc(Cl)c(Cl)c4)c23)C1 (centres undefined)
inactive: NCI-H23 13.2 µM | SNB-19 17.5 µM | HCT-116 4.55 µM | HL-60 22.2 µM | LOX IMVI 11.9 µM | SF-295 11.4 µM | 786-0 15.6 µM | RPMI-8226 13.2 µM | SK-MEL-28 21.2 µM | SNB-75 15.1 µM | SK-MEL-2 10.3 µM | SW-620 6.07 µM | SF-539 21.7 µM | ACHN 5.38 µM | Malme-3M 31.2 µM | MOLT-4 7.4 µM | CAKI-1 26.2 µM

Cc1cc(NS(=O)(=O)c2ccc(Nc3c4ccccc4nc4c(C(=O)N5CCN(CCO)CC5)cccc34)cc2)no1
inactive: NCI-H23 > 100 µM | SNB-19 > 100 µM | HCT-116 > 100 µM | HL-60 47.6 µM | LOX IMVI 39.5 µM | SF-295 > 100 µM | 786-0 > 100 µM | SK-MEL-28 > 100 µM | SNB-75 > 100 µM | SK-MEL-2 > 100 µM | SW-620 > 100 µM | HOP-92 > 100 µM | SF-539 > 100 µM | ACHN > 100 µM | Malme-3M > 100 µM | MOLT-4 83.2 µM | CAKI-1 > 100 µM

CO[C@]12CCC(=O)N1C=Cc1c2[nH]c2ccccc12
inactive: NCI-H23 > 100 µM | SNB-19 > 100 µM | HCT-116 > 100 µM | HL-60 > 100 µM | LOX IMVI > 100 µM | SF-295 > 100 µM | 786-0 > 100 µM | RPMI-8226 > 100 µM | SK-MEL-28 > 100 µM | SNB-75 > 100 µM | SW-620 > 100 µM | HOP-92 > 100 µM | SF-539 > 100 µM | ACHN > 100 µM | Malme-3M > 100 µM | MOLT-4 > 100 µM | CAKI-1 > 100 µM
